Reference: patent US7544438B2, “Electron mediator, electron mediator immobilized electrode, and biofuel cell using the electrode” (Daiichi Pure Chemicals Co., Ltd, priority 2003, dated 2009)

How the values were obtained:
[1] = system: Dp (DIAPHORASE I, [EC 1.6.99.-]); experiment: Reaction kinetic analysis between diaphorase (Dp) and mediator by CV; type: biochemical, Bacillus stearothermophilus; settings: comparison of FMA with AQS, FIG. 6
Source text: A technique of reaction kinetic analysis between an enzyme and a mediator molecule using CV will be described referring to a document (Kazuyoshi Takagi, Kenji Kano, Tokuji Ikeda, J. Electroanal. Chem., 1988, 445, 211-219). Dp catalyses an oxidation reaction of NADH in the presence of an appropriate mediator (Mox) as represented by the following equation (4).
An NADH oxidation rate (νE, ox) may be represented by the following equation (5) on an assumption that an enzyme reaction follows a ping-pong mechanism.
In addition, vE, ox of equation (5) can be approximated as the following equation (6) when Mox concentration is negligibly small ([Mox]<<KM, ox) in the vicinity of the electrode surface.
From the above, kcat, ox/KM, ox clearly represents a reaction rate constant between DPred and Mox. Further, steady state limiting current of catalyst (Is, ox) observed at a more positive potential from the redox potential of the mediator molecule can be represented by the following equation (7).
The reaction rate constant kcat, ox/KM, ox can be estimated from the measured limiting current value using the above equation (7).
On the other hand, cyclic voltammograms with (b) in FIGS. 5A to 5F are measurement results of the above mediator solutions with 0.11 μM of Dp ([…], [EC 1.6.99.-], from Bacillus stearothermophilus, available from Unitika Ltd.) and 4.8 mM of NADH added. […]

[2] = Cyclic voltammetry (CV), redox potential of mediator molecule; type: physicochemical; settings: 0.09 mM mediator in Tris buffer solution (pH 8.5); glassy carbon electrode; Ag|AgCl (saturated KCl) reference; 5 mV/s
Source text: [Cyclic Voltammetry (CV), Redox Potential of Mediator Molecule]
The obtained voltammogram represents the potential on an abscissa axis and the current on an ordinate axis. The CV involves relatively easy experiments and sharply reflects not only equilibrium parameters such as the redox potential or diffusion information but also kinetic parameters of an electrode reaction or of a chemical reaction in solution. Thus, the CV is a method of electrochemical measurement allowing an intuitive grasp of the electrode reaction.
The CV for mediator evaluation involves measuring in an electrolytic solution consisting of the buffer with various mediators, diaphorase, and NADH added.
A potentiostat mode of Hokuto Denko HZ-3000 was used. A glassy carbon electrode (GDE, electrode area of about 0.083 cm^2) was used as a working electrode. The GDE was polished with an aluminum powder of 0.05 μm and subjected to ultrasonic cleaning in deionized water before every measurement. A three electrode cell was used, and a Pt electrode and an Ag|AgCl (saturated KCl) electrode were used as a counter electrode and a reference electrode, respectively for the measurement. A potential was changed at a rate of 5 mV/s. A measurement sample was subjected to sufficient bubbling with N2 gas before the measurement to remove dissolved oxygen, and the N2 gas overflowed during the measurement. All measurements began from an open circuit potential.
Cyclic voltammograms with (a) in FIGS. 5A to 5F are measurement of 0.09 mM solutions of the various mediators prepared using a Tris buffer solution (pH 8.5).

Row | Compound | reaction rate constant larger than that of the AQS by [1] [digit] | redox formal potentials (E^0M′) approximated at middle points of oxidation peaks and reduction peaks [2] [V]
1 | OC[c-]1cccc1.[Fe+2].c1cc[cH-]c1 [FMA, ferrocene methanol] | ≥ 1 | 0.23
2 | CC1=C(CCCC(=O)O)C(=O)c2ccccc2C1=O [CPVK3, 2-(3-carboxypropyl)-3-methyl-1,4-naphthoquinone] |  | −0.32
3 | O=C1c2ccccc2C(=O)c2cc(S(=O)(=O)[O-])ccc21.[Na+] [AQS, sodium anthraquinone-2-sulfonate] |  | −0.49
4 | CC1=CC(=O)c2ccccc2C1=O [VK3, 2-methyl-1,4-naphthoquinone] |  | −0.28
5 | CC1=C(CCCC(=O)NCCN)C(=O)c2ccccc2C1=O [AEACPVK3, 2-{3-[N-(2-aminoethyl)aminocarbonyl]propyl}-3-methyl-1,4-naphthoquinone] |  | −0.32
6 | CC1=C(CCCN)C(=O)c2ccccc2C1=O [APVK3, 2-(3-aminopropyl)-3-methyl-1,4-naphthoquinone] |  | −0.32
